This passage reports logP results from the OPERA property sets (Mansouri et al. 2018).

Where a SMILES comes first, the peptide text is derived from it. The star is where a group is joined. NHtBu = CC(C)(C)N*

A word on the logP: it is a log measure of how a compound divides between an organic and an aqueous phase. A higher logP goes with higher lipophilicity. Regarding `COCCCNC(=S)C(F)(F)Cn1cnc([N+](=O)[O-])n1`, the lipophilicity (logP) came out at 1.1.

Consider `COCCN1CCc2cccc(Cl)c2CC1`, for which the logP came to 3.

In turn, `S=C=NCCCCc1cccnc1` displayed a log partition coefficient (logP) of 2.7.

In turn, `Cc1ncnc2c1ncn2C1CCC(CO)O1` (configuration not stated) returned a logP of -0.12.

Consider `O=[N+]([O-])C=C1NCCCN1Cc1ccc(Cl)nc1`, for which the log partition coefficient (logP) was -0.62.

`Cc1c(O)c(=O)ccn1-c1ccc([N+](=O)[O-])cc1` showed a logP of 0.76.

The compound `COC(=O)c1ccccc1CS(=O)(=O)Nc1nc(OC)cc(OC)n1` registered a logP of 2.4.

`CCN1C(=O)C(=O)c2c(cccc2[N+](=O)[O-])C1=O`: the logP is 0.82.

With `CC(=O)OCC(O)Cn1ccnc1[N+](=O)[O-]` (configuration not stated), the log partition coefficient (logP) is -0.37.

The compound `CC(=O)NC(CCCCN)C(=O)NC(Cc1ccccc1)C(=O)NC(C(N)=O)C(C)C` (configuration not stated) showed a logP of 0.51.

In the case of `COc1ccc(OC)c(Cc2cnc(N)nc2N)c1`, the logP amounted to 1.7.

Compound `C#CCOc1c(Cl)cc(NC=NOCCCC)cc1Cl` came in with a logP of 4.4.

In the case of `CC(C)N1C(=O)C(=O)c2ccccc2C1=O`, the logP was 1.6.

The compound `Cc1cn(C2CC(N=[N+]=[N-])C(COC(=O)CNC(=O)C34CC5CC(CC(C5)C3)C4)O2)c(=O)[nH]c1=O` (configuration not stated) came in with a logP of 2.1.

As for `CCC(=O)C(CS(=O)(=O)c1ccc(C)cc1)c1ccc(Cl)cc1` (configuration not stated), the logP was determined as 3.43.

For `OCC1CC(F)C(n2cnc3c(I)ncnc32)O1` (configuration not stated), the logP amounted to 0.63.

Compound `CC(=NNC(=S)NNC(=S)Nc1ccccc1Cl)c1ccccn1` registered a logP of 2.67.

With `O=C(O)CCCCCCCc1ccccc1`, the logP is 4.09.

Compound `CCc1nc(C)c([N+](=O)[O-])[nH]1` showed a log partition coefficient (logP) of 0.76.

Compound `NC(=Nc1ccccc1)NN=Cc1ccc2ccccc2n1` yielded a logP of 0.99.

`Nc1ncc(Cc2ccccc2Cl)c(N)n1` showed a lipophilicity (logP) of 2.24.

The compound `O=C(NCCCO)C(F)(F)Cn1cnc([N+](=O)[O-])n1` yielded a log partition coefficient (logP) of -0.63.

The compound `COc1cccc(C(=O)NP(=O)(N2CC2)N2CC2)c1` displayed a logP of 0.86.

The compound `C#CCOc1c(Cl)cc(NC=NOCC=C)cc1Cl` came in with a lipophilicity (logP) of 3.7.

Compound `CC(=O)NC(CC(C)C)C(=O)NC(CCC(=O)O)C(=O)NC(Cc1ccccc1)C(N)=O` (stereo not drawn) (Ac-Leu-Glu-Phe-NH2; configuration not given here) gave a logP of 0.47.

`c1ccc(Cn2cccc2)cc1` had a logP of 2.71.

As to `CN(C)N=Nc1ccc(S(=O)(=O)CCO)cc1`, the log partition coefficient (logP) turned out to be 1.15.

The compound `Cc1n[nH]c(C(=O)NCc2ccccc2)c1[N+](=O)[O-]` yielded a lipophilicity (logP) of 1.49.

With `C#CCOc1c(Cl)cc(NC=NOCCOCC)cc1Cl`, the logP was 3.7.

On to `CC(C)OC(=O)n1cc(F)c(=O)[nH]c1=O`, for which the logP stood at 0.2.

`CCCNC(=O)C1(O)C(C)CC2C3CCC4=CC(=O)C=CC4(C)C3(F)C(O)CC21C` (configuration not stated): the logP came out at 2.59.

`CCCCCCOc1ccc(NC(=O)OCCN2CCOCC2)cc1` displayed a log partition coefficient (logP) of 4.51.

`Fc1ccc(C(c2ccc(F)cc2)N2CCN(C/C=C/c3ccccc3)CC2)cc1` displayed a lipophilicity (logP) of 5.78.

In turn, `CCC(C)C(NC(=O)C(CC(C)C)NC(C)=O)C(=O)NC(CCC(=O)O)C(N)=O` (stereo not drawn) (Ac-Leu-Ile-Glu-NH2; configuration not given here) returned a logP of 0.07.

Consider `C=C(C)c1c(OC)cc(Cc2cnc(N)nc2N)cc1OCC`, for which the logP was found to be 2.65.

Compound `CN(CCCn1ccnc1C=NO)S(=O)(=O)C(F)(F)F` registered a logP of 1.77.

Take `CCOC(CC)(OCC)OCC`: the lipophilicity (logP) stood at 1.97.

`CCCN1C(=O)C(=O)c2ccccc2C1=O` registered a log partition coefficient (logP) of 1.6.

Regarding `CCN(CC)Cc1ccc(C(=O)Nc2ccccc2C)cc1`, the logP turned out to be 3.31.

Compound `COc1ccc(OCc2ccccc2CCCN2CCC(O)CC2)cc1` registered a lipophilicity (logP) of 3.1.

`CC1=C(C(=O)O)N2C(=O)C(NC(=O)C(OC(=O)C(C)C)c3ccccc3)C2SC1` (configuration not stated): the logP was determined as 2.05.

The compound `c1ccc(-c2nnn[nH]2)cc1` returned a logP of 1.65.

Compound `CC1CC2C3CCC4=CC(=O)C=CC4(C)C3(F)C(O)CC2(C)C1(O)C(=O)NCc1ccccc1` (configuration not stated) showed a lipophilicity (logP) of 3.28.

The compound `Cc1[nH]cnc1CSCCNc1cc(=O)cc[nH]1` returned a logP of 0.8.

Take `Clc1cc(Cl)cc(-c2cccc(Cl)c2Cl)c1`: the logP was 6.17.

The compound `Fc1ccc(SCc2ccccc2CCCN2CCOCC2)cc1` returned a logP of 3.69.

`COc1ccc2c(C)cc(=O)n3c(C)cc1c23` yielded a logP of 2.84.

On to `CC1(c2ccc(F)cc2)OC2CC3C4CCC5=CC(=O)CCC5C4CCC3(C)C2(C(=O)CO)O1` (configuration not stated), for which the logP stood at 4.92.

`Clc1cc(Cl)c2c(c1)Oc1c(cc(Cl)c(Cl)c1Cl)O2`: the log partition coefficient (logP) was 6.53.

In turn, `O=c1n[n+]([O-])ccn1Cc1ccccc1` had a log partition coefficient (logP) of 0.19.

On to `Cc1ccc(Cl)cc1O`, for which the logP worked out at 2.63.

`CCCOC(=O)C(C(=O)OC)=C1SC=CS1` came in with a log partition coefficient (logP) of 2.72.

For `CC(C)(C)C(COc1ccc(S(C)(=O)=O)cc1)OC(=O)n1ccnc1` (configuration not stated), the logP turned out to be 2.59.

With `Cc1n[nH]c(C(=O)N2CCCCC2)c1[N+](=O)[O-]`, the logP was 0.79.

Compound `O=[N+]([O-])c1nccn1COC(CO)C(O)CO` (configuration not stated) registered a logP of -1.47.

`CC1OC(OC2C(C)OC(OC3C(C)OC(OC4CCC5(C)C(CCC6C5CCC5(C)C(C7=CC(=O)OC7)C(OC=O)CC65OC=O)C4)CC3OC=O)CC2OC=O)CC(O)C1OC=O` (configuration not stated) displayed a logP of 3.16.

As to `CN1C(C(=O)Nc2nccs2)=C(O)c2ccccc2S1(=O)=O`, the lipophilicity (logP) stood at 1.64.

In turn, `Nc1ccc2c(c1)C(=O)N(O)C2=O` showed a logP of 0.16.

Consider `O=C(O)CCC(S)CCS` (configuration not stated), for which the logP was 1.4.

Turning to `O=c1[nH]c(Nc2ccccc2)nc2c1ncn2CC(O)CSCCO` (configuration not stated), the logP is 0.83.

Turning to `CCCCCc1cc(CCCCN2CC(=O)c3ccccc3C2=O)c2c(c1)OC(C)(C)C1CC=C(C)CC21` (configuration not stated), the logP was 9.07.

`CCCC(=O)OC(C(=O)NC1C(=O)N2C(C(=O)O)=C(C)CSC12)c1ccccc1` (configuration not stated) came in with a logP of 1.89.

As to `N#CC(C#N)=NNc1ccc(/N=N/c2ccccc2)cc1`, the log partition coefficient (logP) stood at 4.25.

On to `CCN(CC)CCSC(=NO)c1nonc1C`, for which the lipophilicity (logP) amounted to 1.4.

Take `CC(=O)NC(C)C(=O)N1CCCC1C(=O)NC(C)C(=O)NC(C)(C)C` (stereo not drawn) (Ac-Ala-Pro-Ala-NHtBu; configuration not given here): the lipophilicity (logP) is -0.39.

Compound `Cn1ccc(=O)cc1` came in with a lipophilicity (logP) of -1.22.

The compound `Cc1cccc(C)c1NN=C(C#N)C#N` registered a log partition coefficient (logP) of 2.8.

The compound `CN(C)Cc1ccc(-c2cccc(Nc3[nH]ccc3[N+](=O)[O-])c2)o1` came in with a logP of 3.1.

As to `CC1CSC2C(NC(=O)C(O)c3ccccc3)C(=O)N2C1C(=O)O` (configuration not stated), the logP was 0.47.

With `O=[N+]([O-])c1nccn1CCN1CCCCC1`, the logP was 0.36.

Compound `CN1C(=O)C(=O)c2ccccc2C1=O` registered a logP of 0.6.

The compound `COP(=O)(OC)O/C(C)=C/C(=O)OC(C)c1ccccc1` (configuration not stated) had a log partition coefficient (logP) of 3.3.

Consider `O=C(NCCCO)C(F)(F)Cn1ccnc1[N+](=O)[O-]`, for which the logP was -0.64.

Regarding `Cc1ccc(-n2ccc(=O)c(O)c2C)cc1`, the logP was determined as 1.72.

In turn, `O=C(NCCCCO)C(F)(F)Cn1ccnc1[N+](=O)[O-]` displayed a lipophilicity (logP) of -0.29.

`CC(=O)C1(O)C(C)CC2C3CCC4=CC(=O)C=CC4(C)C3(F)C(O)CC21C` (configuration not stated) displayed a lipophilicity (logP) of 2.35.

Take `COC(C)(C(=O)O)c1ccccc1` (configuration not stated): the logP came to 1.64.

Consider `CNC(=O)N(C)c1nnc(C(C)(C)C)s1`, for which the logP was 1.79.

The compound `Clc1cc2c(cc1Cl)Oc1c(Cl)ccc(Cl)c1O2` came in with a log partition coefficient (logP) of 6.39.

Consider `Cc1cc(NC(=O)C2=C(O)c3ccccc3S(=O)(=O)N2C)no1`, for which the logP came out at 2.83.

`CCOC(=O)C(C)Oc1ccc(Oc2cnc3cc(C(F)(F)F)ccc3n2)cc1` (configuration not stated) registered a lipophilicity (logP) of 4.37.

With `[N-]=[N+]=CC(=O)NCC(=O)N1CCOCC1`, the logP was -0.47.

In the case of `CCN(CC)Cc1cccc(C(=O)Nc2c(C)cccc2C)c1`, the logP stood at 3.09.

Compound `CCOC(=O)c1ccc(N=NN(C)C)cc1` registered a logP of 3.66.

In the case of `COc1ccccc1OCc1ccccc1CCCN1CCC(O)CC1`, the logP stood at 2.82.

In turn, `CS(=O)(=O)N(c1ccccc1[N+](=O)[O-])S(C)(=O)=O` displayed a logP of 0.81.

Regarding `CC(=O)N(CC(O)CO)c1c(I)c(C(=O)NCCO)c(I)c(C(=O)NCCO)c1I` (configuration not stated), the log partition coefficient (logP) is -1.86.

Compound `CC(=O)NC(CC(=O)O)C(=O)NC(Cc1ccccc1)C(=O)NC(CC(C)C)C(N)=O` (stereo not drawn) (Ac-Asp-Phe-Leu-NH2; configuration not given here) displayed a logP of 0.4.

`COCc1ccc(O)c2ncccc12` displayed a logP of 1.78.

`C=C1CCC2C(C1)c1c(OC)cc(CCC)cc1OC2(C)C` (configuration not stated) had a log partition coefficient (logP) of 6.26.

For `CCCCC(C#N)(Cn1cncn1)c1ccc(Cl)cc1` (configuration not stated), the logP amounted to 2.94.

Consider `COC(=O)c1c(C)[nH]c(-c2ncccc2Cl)c1C(=O)OC`, for which the logP is 1.51.

Compound `Cc1nnc(SCC2=C(C(=O)OCOC(=O)C(C)(C)C)N3C(=O)C(NC(=O)Cn4cnnn4)C3SC2)s1` (configuration not stated) gave a lipophilicity (logP) of 1.34.

For `COC(=O)n1cnc(CC(NC(=O)C2CCC(=O)N2)C(=O)N2CCCC2C(N)=O)c1` (configuration not stated), the log partition coefficient (logP) was -1.88.

In turn, `Cn1c([N+](=O)[O-])cnc1Cc1ccc(C(N)=O)cc1` displayed a logP of 0.55.

The compound `Fc1ccc(SCc2ccc(CCCN3CCOCC3)cc2)cc1` returned a log partition coefficient (logP) of 3.51.

As to `Cc1ccc(OCc2ccccc2CCCN2CCC(O)CC2)cc1`, the logP is 3.5.

As for `NC(=O)C(=Cc1ccc([N+](=O)[O-])o1)c1ccco1`, the logP was 0.15.

On to `O=C(O)c1cc(Oc2cc(C(F)(F)F)ccc2Cl)ccc1[N+](=O)[O-]`, for which the log partition coefficient (logP) was found to be 3.7.

For `CCC1COC(Cn2cncn2)(c2ccc(-n3cncn3)cc2Cl)O1` (configuration not stated), the logP came to 1.28.

Turning to `CCC(=O)C(CS(=O)(=O)c1ccc(C)cc1)c1ccc(C)cc1` (configuration not stated), the logP is 3.3.

The compound `CCc1cccc(NC(=O)Cc2ccccc2)c1` had a logP of 3.47.

On to `Cc1ccc(CN2CCNC2=C[N+](=O)[O-])cn1`, for which the lipophilicity (logP) is -0.59.

For `COC1=CC2CCC(NC(C)=O)c3cc(=O)c(OC)ccc3C2C(OC)=C1O` (configuration not stated), the logP amounted to 0.47.

As to `Clc1cc2oc3c(Cl)cc(Cl)c(Cl)c3c2cc1Cl`, the lipophilicity (logP) amounted to 6.26.

`CNC(=O)C(Cc1ccc(O)cc1)NC(C)=O` (configuration not stated) had a logP of -0.32.

Compound `Clc1cc(-c2c(Cl)c(Cl)c(Cl)c(Cl)c2Cl)c(Cl)c(Cl)c1Cl` yielded a lipophilicity (logP) of 9.14.
